# pIC50: −log10 of the molar value. Read-outs that look alike come from different tables or passages of the source.
# Molecular target: T1, N-type Ca^2+ Channel (Homo sapiens, UniProt Q00975)
# T1 construct: host or cells: IMR-32 cells differentiated with dibutyryl cAMP and bromodeoxyuridine
# Experiment: Measurement of N-type Ca2+ channel blocking potencies in IMR-32 cells using the fluorescent Ca2+ indicator Indo-1
# Type: cell-based
# Method: Measurement of N-type Ca^2+ Channel Blocking Potencies of Compounds in IMR-32 Cells Using the Fluorescent Ca^2 + Indicator Indo-1
# IMR-32 cells are a human tumoral cell line of neural origin. […] Calcium flux into these cells may be induced by stimulation with elevated potassium concentrations. The L-channel component of calcium flux may be blocked by adding 5 μM nitrendipine. The remaining component of calcium entry into the IMR-32 cells is due to calcium flux through N-type calcium channels. Intracellular calcium concentrations are measured using the fluorescent calcium indicator Indo-1. The effect of drug concentration on calcium uptake is studied.
# The IMR-32 cell line was obtained from the American Type Culture Collection (Rockville, Md.). Cells were grown in Eagle's Minimum Essential Medium with Earle's salts supplemented with 10% fetal bovine serum, 2 mM L-Gln and antibiotic/antimycotic mixture (Gibco). At approximately 80% confluency, differentiation was induced by the addition of 1 mM dibutyryl cAMP and 2.5 μM bromodeoxyuridine to the medium. After 7 to 13 days of differentiation, cells were detached using 0.5 mM EDTA and loaded with 5 μM Indo-1 acetoxymethyl ester (Molecular Probes, Eugene, Oreg.) at 30° C. for 45 minutes. Loaded cells were washed twice, resuspended (~10^7 cells/mL) in assay buffer (10 mM HEPES/Tris pH 7.4 in Hank's Balanced Salt Solution without bicarbonate or phenol red containing 0.5% bovine serum albumin) and kept on ice until use. Fluorescence measurements were carried out in a Photon Technology International (PTI, South Brunswick, N.J.) Model RF-F3004 spectrofluorometer with dual emission monochromators using excitation at 350 nm and emission at 400 and 490 nm. The instrument was equipped with a thermostated cuvette holder with stirring capabilities as well as with a computer-controlled pump which allowed for reagent addition during measurement. Instrument control and data collection was done by PTI's OSCAR software running on an IBM compatible computer. Different concentrations of the test compounds (60 μL in dimethyl sulfoxide) were added to 5.94 mL of assay buffer containing approximately 3×10^6 loaded cells, and 5 μM nitrendipine (in 30 μL EtOH) to block L-type Ca^2+ channels. Samples were incubated for 10 minutes at 30° C. and then aliquoted into three 10×10 mm disposable acrylic cuvettes. Emission signals at 400 and 490 nm were acquired from each cuvette at 30° C. for 50 seconds. At 20 seconds after the start of reading, cells were depolarized by the addition of 160 μL of stimulation solution (1 M KCl, 68 mM CaCl2) to the cuvette via the computer-controlled pump. Ratio of dual emission signals (400 nm/ 490 nm), which is proportional to intracellular Ca^2+ concentration, was plotted against time, and the difference between maximal response after stimulation and basal value (before stimulation) was determined. Values obtained in this way were plotted as a function of drug concentration. IC50 values of test compounds were calculated by fitting a four-parameter logistic function to the data using the least squares method.
# [1] = IMR-32 cells, K+ depolarization, 5 μM nitrendipine to block L-type channels, read-out: IMR 32 IC50
# [2] = IMR-32 cells, 5 μM nitrendipine
# [3] = IMR-32 cells, 5 μM nitrendipine, Examples 116-140, read-out: IMR 32% of Blockade @
# T1 sequence (Q00975 whole entry): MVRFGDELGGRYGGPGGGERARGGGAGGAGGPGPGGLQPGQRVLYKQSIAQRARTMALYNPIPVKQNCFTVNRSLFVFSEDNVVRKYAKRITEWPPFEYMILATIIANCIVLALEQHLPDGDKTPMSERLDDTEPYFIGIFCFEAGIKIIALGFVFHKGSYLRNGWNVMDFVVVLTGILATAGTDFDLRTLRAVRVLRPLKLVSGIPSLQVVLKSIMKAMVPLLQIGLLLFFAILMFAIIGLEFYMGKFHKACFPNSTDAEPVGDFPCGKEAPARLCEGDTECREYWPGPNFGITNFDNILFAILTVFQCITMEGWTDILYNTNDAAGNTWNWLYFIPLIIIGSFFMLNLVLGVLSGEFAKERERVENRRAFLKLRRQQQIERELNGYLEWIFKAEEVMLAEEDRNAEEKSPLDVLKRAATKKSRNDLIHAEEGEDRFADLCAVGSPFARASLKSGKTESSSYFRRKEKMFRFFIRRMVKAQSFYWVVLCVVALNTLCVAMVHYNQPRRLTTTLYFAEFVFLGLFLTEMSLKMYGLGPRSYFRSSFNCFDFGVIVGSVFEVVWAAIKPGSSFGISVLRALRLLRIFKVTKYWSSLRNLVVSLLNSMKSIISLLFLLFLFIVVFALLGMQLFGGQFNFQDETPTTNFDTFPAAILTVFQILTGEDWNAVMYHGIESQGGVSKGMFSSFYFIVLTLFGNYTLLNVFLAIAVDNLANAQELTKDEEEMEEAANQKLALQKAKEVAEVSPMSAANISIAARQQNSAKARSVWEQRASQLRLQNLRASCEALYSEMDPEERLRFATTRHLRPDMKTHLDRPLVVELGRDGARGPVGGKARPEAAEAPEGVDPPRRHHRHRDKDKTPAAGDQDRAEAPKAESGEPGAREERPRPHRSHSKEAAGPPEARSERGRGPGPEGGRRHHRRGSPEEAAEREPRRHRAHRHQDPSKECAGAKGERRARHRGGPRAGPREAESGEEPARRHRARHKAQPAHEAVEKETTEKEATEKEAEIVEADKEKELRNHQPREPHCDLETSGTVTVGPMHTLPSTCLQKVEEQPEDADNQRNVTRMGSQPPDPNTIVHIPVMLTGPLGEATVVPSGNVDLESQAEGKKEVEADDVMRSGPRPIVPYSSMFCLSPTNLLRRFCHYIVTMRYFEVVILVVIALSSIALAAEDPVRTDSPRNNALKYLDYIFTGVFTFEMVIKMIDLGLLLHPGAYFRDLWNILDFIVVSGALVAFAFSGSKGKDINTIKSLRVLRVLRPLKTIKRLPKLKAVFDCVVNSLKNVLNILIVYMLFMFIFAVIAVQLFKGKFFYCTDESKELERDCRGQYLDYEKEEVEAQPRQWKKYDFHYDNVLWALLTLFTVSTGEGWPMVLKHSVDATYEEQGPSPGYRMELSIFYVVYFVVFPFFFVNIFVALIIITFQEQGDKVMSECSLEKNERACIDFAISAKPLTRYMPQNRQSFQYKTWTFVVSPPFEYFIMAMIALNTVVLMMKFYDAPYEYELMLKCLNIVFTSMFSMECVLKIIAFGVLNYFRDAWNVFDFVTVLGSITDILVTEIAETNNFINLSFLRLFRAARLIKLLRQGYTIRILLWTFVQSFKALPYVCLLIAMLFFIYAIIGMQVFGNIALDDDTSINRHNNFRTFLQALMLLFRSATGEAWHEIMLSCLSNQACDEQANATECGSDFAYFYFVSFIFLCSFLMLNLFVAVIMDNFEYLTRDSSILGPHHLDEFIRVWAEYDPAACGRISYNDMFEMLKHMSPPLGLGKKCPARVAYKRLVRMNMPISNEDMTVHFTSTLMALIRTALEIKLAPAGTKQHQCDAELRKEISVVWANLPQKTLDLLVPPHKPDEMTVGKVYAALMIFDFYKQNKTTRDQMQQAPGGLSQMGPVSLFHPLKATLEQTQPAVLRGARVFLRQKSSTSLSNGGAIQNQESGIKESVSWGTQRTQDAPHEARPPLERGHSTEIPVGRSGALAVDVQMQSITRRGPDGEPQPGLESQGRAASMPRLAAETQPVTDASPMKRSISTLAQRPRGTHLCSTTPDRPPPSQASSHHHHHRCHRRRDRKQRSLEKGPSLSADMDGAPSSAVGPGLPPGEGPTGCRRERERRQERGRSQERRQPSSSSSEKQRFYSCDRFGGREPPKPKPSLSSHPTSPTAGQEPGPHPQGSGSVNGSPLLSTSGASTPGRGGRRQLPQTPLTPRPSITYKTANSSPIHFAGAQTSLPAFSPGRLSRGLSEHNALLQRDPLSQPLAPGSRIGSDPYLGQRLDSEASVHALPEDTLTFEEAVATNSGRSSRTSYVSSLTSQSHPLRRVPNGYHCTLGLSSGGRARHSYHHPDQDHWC
# T1 sequence (P54284 whole entry partner): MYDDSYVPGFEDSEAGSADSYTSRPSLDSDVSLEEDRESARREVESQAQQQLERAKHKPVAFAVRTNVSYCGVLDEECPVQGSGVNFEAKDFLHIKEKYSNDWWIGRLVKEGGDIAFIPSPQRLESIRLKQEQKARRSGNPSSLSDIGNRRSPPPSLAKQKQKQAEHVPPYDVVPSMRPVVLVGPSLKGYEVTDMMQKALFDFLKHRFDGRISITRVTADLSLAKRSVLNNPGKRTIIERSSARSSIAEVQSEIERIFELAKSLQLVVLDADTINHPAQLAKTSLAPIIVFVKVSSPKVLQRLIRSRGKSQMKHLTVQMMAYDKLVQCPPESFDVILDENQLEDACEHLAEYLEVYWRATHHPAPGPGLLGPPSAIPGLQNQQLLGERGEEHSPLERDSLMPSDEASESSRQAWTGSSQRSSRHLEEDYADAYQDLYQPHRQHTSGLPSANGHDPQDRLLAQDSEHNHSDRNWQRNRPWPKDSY
# T1 sequence (P54289 25-946 partner limits assumed): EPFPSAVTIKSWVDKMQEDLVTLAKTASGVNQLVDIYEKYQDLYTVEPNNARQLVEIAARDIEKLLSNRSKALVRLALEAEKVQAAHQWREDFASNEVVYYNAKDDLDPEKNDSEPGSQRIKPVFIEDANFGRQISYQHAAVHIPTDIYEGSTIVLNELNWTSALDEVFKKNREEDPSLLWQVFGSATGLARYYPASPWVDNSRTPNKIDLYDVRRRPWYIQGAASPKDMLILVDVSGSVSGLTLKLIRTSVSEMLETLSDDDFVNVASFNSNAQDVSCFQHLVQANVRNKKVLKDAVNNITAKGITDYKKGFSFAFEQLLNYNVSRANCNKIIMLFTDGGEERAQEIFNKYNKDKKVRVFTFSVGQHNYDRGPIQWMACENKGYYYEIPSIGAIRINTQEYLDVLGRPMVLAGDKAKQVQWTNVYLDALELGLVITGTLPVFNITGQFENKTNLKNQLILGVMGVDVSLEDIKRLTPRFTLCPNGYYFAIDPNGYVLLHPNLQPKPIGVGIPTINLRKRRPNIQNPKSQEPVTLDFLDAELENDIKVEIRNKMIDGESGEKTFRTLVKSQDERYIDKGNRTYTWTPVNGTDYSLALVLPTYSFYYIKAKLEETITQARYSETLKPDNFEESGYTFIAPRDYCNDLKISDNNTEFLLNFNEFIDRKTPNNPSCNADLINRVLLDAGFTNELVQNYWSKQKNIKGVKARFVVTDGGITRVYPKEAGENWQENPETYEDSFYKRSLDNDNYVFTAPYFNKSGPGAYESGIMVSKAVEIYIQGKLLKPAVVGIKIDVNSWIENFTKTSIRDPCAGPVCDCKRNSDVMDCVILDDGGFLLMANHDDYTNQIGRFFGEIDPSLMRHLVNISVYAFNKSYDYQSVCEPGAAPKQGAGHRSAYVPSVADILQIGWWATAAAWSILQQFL
# T1 sequence (P54289 947-1103 partner limits assumed): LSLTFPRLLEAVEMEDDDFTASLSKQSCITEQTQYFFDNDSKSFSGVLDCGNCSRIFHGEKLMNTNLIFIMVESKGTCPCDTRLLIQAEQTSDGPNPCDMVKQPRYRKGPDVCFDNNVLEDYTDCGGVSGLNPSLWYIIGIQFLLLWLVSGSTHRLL
pIC50 [1],Molecule,other results
5.62,"CC(C)CCN(C)[C@@H](CC(C)C)C(=O)N[C@@H](Cc1ccc(OCc2ccccc2)cc1)C(=O)NCCN1CCCC1 (relative stereo) [Example 64, [S-(R*,R*)]-4-Methyl-2-[methyl-(3-methyl-butyl)-amino]-pentanoic acid [2-(4-benzyloxy-phenyl)-1-(2-pyrrolidin-1-yl-ethylcarbamoyl)-ethyl]-amide]",
5.57,"CC(C)CC(NC1CCOCC1)C(=O)NC(Cc1ccc(OCc2ccccc2)cc1)C(=O)NC(C)(C)CO (stereo not drawn) [Example 73, [S-(R*,R*)]-4-Methyl-2-(tetrahydro-pyran4-ylamino)-pentanoic acid [2-(4-benzyloxy-phenyl)-1-(2-hydroxy-1,1-dimethyl-ethylearbamoyl)-ethyl]-amide]",
5.89,"CC(C)CCNC(C)(C)C(=O)N[C@@H](Cc1ccc(OCc2ccccc2)cc1)C(=O)NC(C)(C)C [Example 104, (S)-N-[2-(4-Benzyloxy-phenyl)-1-tert-butylcarbamoyl-ethyl]-2-(3-methyl-butylamino)-isobutyramide]",
6.49,"CC(C)CC(NC1CCOCC1)C(=O)NC(Cc1ccc(OCc2ccccc2)cc1)C(=O)OC(C)(C)C (stereo not drawn) [Example 85, [S-(R*,R*)]-3-(4-Benzyloxy-phenyl)-2-[4-methyl-2-(tetrahydro-pyran-4-ylamino)-pentanoylamino]-propionic acid tert-butyl ester]",
5.55,"CC(C)C[C@@H](C(=O)N[C@@H](Cc1ccc(OCc2ccccc2)cc1)C(=O)NC(C)(C)C)N(C)C(C)C (relative stereo) [Example 86, [S-(R*,R*)]-2-(Isopropyl-methyl-amino)-4-methyl-pentanoic acid [2-(4-benzyloxy-phenyl)-1-tert-butylcarbamoyl-ethyl]-amide]",
5.59,"CC(C)C[C@H](NC1CCOCC1)C(=O)N[C@@H](Cc1ccc(OCc2ccccc2)cc1)C(=O)NCCN1CCCCC1 (relative stereo) [Example 77, [S-(R*,R*)]-4-Methyl-2-(tetrahydro-pyran-4-ylamino)-pentanoic acid [2-(4-benzyloxy-phenyl)-1-(2-piperidin-1-yl-ethylcarbamoyl)-ethyl]-amide]",
,"CC(C)C[C@@H](C(=O)N[C@@H](Cc1ccc(OCc2ccccc2)cc1)C(=O)NC1CCN(Cc2ccccc2)CC1)N(C)C1CCCCC1 (relative stereo) [Example 23, [S-(R*,R*)]-2-(Cyclohexyl-methyl-amino)-4-methyl-pentanoic acid [2-(4-benzyloxy-phenyl)-1-(1-benzyl-piperidin-4-ylcarbamoyl)-ethyl]-amide]","IMR 32 % of Blockade @ 1 μM [2]: 53%; IMR 32 % of Blockade @ 3 μM (3 μM, IMR-32 cells, 5 μM nitrendipine): 80%"
,"CC(C)C[C@@H](C(=O)N[C@@H](Cc1ccc(OCc2ccccc2)cc1)C(=O)N1CCCCC1)N(C)C1CCCCC1 (relative stereo) [Example 20, [S-(R*,R*)]-2-(Cyclohexyl-methyl-amino)-4-methyl-pentanoic acid [2-(4-benzyloxy-phenyl)-1-(piperidine-1-carbonyl)-ethyl]-amide]",IMR 32 % of Blockade @ 1 μM [2]: 65%; IMR 32 % of Blockade @ 10 μM [2]: 87%
,"CC(C)C[C@@H](C(=O)N[C@@H](Cc1ccc(OCc2ccccc2)cc1)C(=O)NC1CCN(Cc2ccccc2)CC1)N(C)C (relative stereo) [Example 5, [S-(R*,R*)]-2-Dimethylamino-4-methyl-pentanoic acid [2-(4-benzyloxy-phenyl)-1-(1-benzyl-piperidin-4-yl-carbamoyl)-ethyl]-amide]",IMR 32 % of Blockade @ 1 μM [2]: 24%; IMR 32 % of Blockade @ 10 μM [2]: 81%
,"[S-(R*,R*)]-4-Methyl-2-(tetrahydropyran-4-yl-amino)-pentanoic acid [2-(4-benzyloxy-phenyl)-1-(-(2-pyridin-2-yl-ethylcarbamoyl)-ethyl]-amide [Example 128]",pIC50 [3]: 5.41
6.42,"CC(C)C[C@@H](C(=O)N[C@@H](Cc1ccc(OCc2ccccc2)cc1)C(=O)NC(C)(C)C)N(C)CC(C)C (relative stereo) [Example 42, [S-(R*,R*)]-2-(Isobutyl-methyl-amino)-4-methyl-pentanoic acid [2-(4-benzyloxy-phenyl)-1-tert-butylcarbamoyl-ethyl]-amide]",
,"CC(C)C[C@@H](C(=O)N[C@@H](Cc1ccc(OCc2ccccc2)cc1)C(=O)N1CCC(O)CC1)N1CCOCC1 (relative stereo) [Example 126, [S-(R*,R*)]4-Methyl-2-morpholin-4-yl-pentanoic acid [2-(4-benzyloxy-phenyl)-1-(4-hydroxypiperidinylcarbamoyl)-ethyl]-amide]",pIC50 [3]: 5.19
6.38,"CC(C)CC(NCc1ccc(C(C)(C)C)cc1)C(=O)NC(Cc1ccc(OCc2ccccc2)cc1)C(=O)NC(C)(C)C (stereo not drawn) [Example 50, [S-(R*,R*)]-2-(4-tert-Butyl-benzylamino)-4-methyl-pentanoic acid [2-(4-benzyloxy-phenyl)-1-tert-butylcarbamoyl-ethyl]-amide]",
6.70,"CC(C)C[C@@H](C(=O)N[C@@H](Cc1ccc(OCc2ccccc2)cc1)C(=O)NC(C)(C)C)N(C)C1CCCCC1 (relative stereo) [Example 19, [S-(R*,R*)]-2-(Cyclohexyl-methyl-amino)-4-methyl-pentanoic acid [2-(4-benzyloxy-phenyl)-1-tert-butylcarbamoyl-ethyl]-amide]",
,"CC(C)CC(C(=O)NC(Cc1ccc(OCc2ccccc2)cc1)C(=O)NCCNCCO)N(C)C (stereo not drawn) [Example 140, [S-(R*,R*)]-2-Dimethylamino-4-methyl-pentanoic acid {2-(4-benzyloxy-phenyl)-1-[2-(2-hydroxy-ethylamino)-ethylcarbamoyl]-ethyl}-amide]",pIC50 [3]: 5.29
,"CC(C)C[C@@H](C(=O)N[C@@H](Cc1ccc(OCc2ccccc2)cc1)C(=O)N1CCN(Cc2ccccc2)CC1)N(C)C (relative stereo) [Example 4, [S-(R*,R*)]-2-Dimethylamino-4-methyl-pentanoic acid [1-(4-benzyloxy-benzyl)-2-(4-benzyl-piperazin-1-yl)-2-oxo-ethyl]-amide]",IMR 32 % of Blockade @ 1 μM [2]: 50%; IMR 32 % of Blockade @ 10 μM [2]: 94%
6.22,"CC(C)C[C@@H](C(=O)N[C@@H](Cc1ccc(OCc2ccccc2)cc1)C(=O)NC1CCN(Cc2ccccc2)CC1)N(C)CC1CCCCC1 (relative stereo) [Example 29, [S-(R*,R*)]-2-(Cyclohexylmethyl-methyl-amino)-4-methyl-pentanoic acid [2-(4-benzyloxy-phenyl)-1-(1-benzyl-piperidin-4-ylcarbamoyl)-ethyl]-amide]",
,"CCN(CC)C(CC(C)C)C(=O)N[C@@H](Cc1ccc(OCc2ccccc2)cc1)C(=O)NC(C)(C)C (stereo in doubt) [Example 37, [S-(R*,R*/S*)]-2-Diethylamino-4-methyl-pentanoic acid[2-(4-benzyloxy-phenyl)-1-tert-butylcarbamoyl-ethyl]-amide]",pIC50 (read-out: IMR 32 IC50): 6.00
6.40,"CC(C)C[C@@H](C(=O)N[C@@H](Cc1ccc(OCc2ccccc2)cc1)C(=O)NC(C)(C)C)N(C)CCC(C)(C)C (relative stereo) [Example 36, [S-(R*,R*)]-2-[(3,3-Dimethyl-butyl)-methyl-amino]-4-methyl-pentanoic acid [2-(4-benzyloxy-phenyl)-1-tert-butylcarbamoyl-ethyl]-amide]",

Molecule,pIC50 [1],other results
"CC(C)C[C@@H](C(=O)N[C@@H](Cc1ccc(OCc2ccccc2)cc1)C(=O)NC(C)(C)C)N(C)C (relative stereo) [Example 1, [S-(R*,R*)]-2-Dimethylamino-4-methyl-pentanoic acid [2-(4-benzyloxy-phenyl)-1-tert-butylcarbamoyl-ethyl]-amide]",5.64,
